Experimental data: ChEMBL document CHEMBL2448688, “Selection and optimization of hits from a high-throughput phenotypic screen against Trypanosoma cruzi. Exported from HEOS 25-Oct-2013. See also related datasets CHEMBL3137440 and CHEMBL3137386”
≈ marks a conversion by molar mass, not a printed value. Where “and” joins values, the source holds several entries; their conditions need not be identical. Equal values may be shown once.

Experiments:
[1] = tested on: Leishmania infantum; assay: DNDI: Leish (macro) in Vitro; type: functional, organism-based, MHOM/MA(BE)/67
[2] = (§1) DNDI: Cytotoxicity in vitro, against rat skeletal myoblast (L-6) cells; conditions: L-6 cells (skeletal myoblasts), IC50
[3] = tested on: Trypanosoma cruzi; assay: (§2) DNDI: Chagas in Vitro; type: functional, organism-based, Tulahuen C4 (LacZ)
[4] = tested on: Trypanosoma cruzi; assay: as §2; type: functional, Tulahuen C4 (LacZ)
[5] = tested on: Trypanosoma brucei rhodesiense; assay: DNDI: HAT in Vitro; type: functional, organism-based, ATCC 30027
[6] = in vitro; conditions: human, microsomes
[7] = target: Cytochrome P450 3A4 (Homo sapiens, UniProt P08684); assay: DNDI: Human CYP3A4 inhibition determined using 6b-hydroxylation of testosterone
[8] = target: T1, CYP3A4 (Homo sapiens, UniProt P08684); assay: DNDI: Human CYP3A4 inhibition at 10 uM determined using 6b-hydroxylation of testosterone; conditions: probe testosterone (6b-hydroxylation)
[9] = DNDI: Lipophilicity (gLogD) at pH 7.4; conditions: buffer, pH 7.4, logD
[10] = DNDI: Lipophilicity (gLogD) at pH 3; conditions: buffer, pH 3, logD
[11] = in vitro; conditions: human, microsomes, t (1 / 2)
[12] = DNDI: Solubility in 0.01M HCl at pH 2 determined by nephelometry; conditions: 0.01M HCl, pH 2, Kinetic
[13] = target: T1, CYP3A4; assay: DNDI: Human CYP3A4 inhibition at 1 uM determined using 6b-hydroxylation of testosterone; conditions: probe testosterone (6b-hydroxylation)
[14] = in vitro; conditions: human, microsomes, EH
[15] = in vitro; conditions: mouse, microsomes
[16] = in vitro; conditions: rat, microsomes
[17] = in vitro; conditions: rat, hepatocytes
[18] = DNDI: Metabolism; type: ADME, Microsome; conditions: rat, microsomes
[19] = in vitro; conditions: mouse, microsomes; remark: listed apart in the source
[20] = DNDI: Solubility in phosphate buffer at pH 6.5 determined by nephelometry; conditions: phosphate buffer, pH 6.5, Kinetic
[21] = in vitro; conditions: rat, microsomes; remark: listed apart in the source
[22] = tested on: Leishmania donovani; assay: DNDI: Leish macro in vitro at 10 uM; type: functional; conditions: MHOM/ET/67/L82
[23] = tested on: Trypanosoma cruzi; assay: DNDI: Chagas in vivo at 20 mg/kg, 20 days 2x; type: functional, Tulahuen Swiss po
[24] = tested on: Trypanosoma cruzi; assay: DNDI: Chagas in vivo at 50 mg/kg, 20 days 1x; type: functional, Tulahuen Swiss po
[25] = DNDI: Protein binding in mouse plasma
[26] = DNDI: Protein binding in rat plasma; type: ADME, cell-free; conditions: read-out: % bound (converted)
[27] = DNDI: Cytotoxicity in vitro, against human lung fibroblast (MRC-5) cells; conditions: MRC-5 cells (lung fibroblasts)
[28] = tested on: L6; assay: as §1; conditions: L-6 cells (skeletal myoblasts)
[29] = Trypanosoma cruzi, Tulahuen C4 (LacZ)
[30] = Leishmania infantum, MHOM/MA(BE)/67

Chain of Cytochrome P450 3A4 (P08684 whole entry): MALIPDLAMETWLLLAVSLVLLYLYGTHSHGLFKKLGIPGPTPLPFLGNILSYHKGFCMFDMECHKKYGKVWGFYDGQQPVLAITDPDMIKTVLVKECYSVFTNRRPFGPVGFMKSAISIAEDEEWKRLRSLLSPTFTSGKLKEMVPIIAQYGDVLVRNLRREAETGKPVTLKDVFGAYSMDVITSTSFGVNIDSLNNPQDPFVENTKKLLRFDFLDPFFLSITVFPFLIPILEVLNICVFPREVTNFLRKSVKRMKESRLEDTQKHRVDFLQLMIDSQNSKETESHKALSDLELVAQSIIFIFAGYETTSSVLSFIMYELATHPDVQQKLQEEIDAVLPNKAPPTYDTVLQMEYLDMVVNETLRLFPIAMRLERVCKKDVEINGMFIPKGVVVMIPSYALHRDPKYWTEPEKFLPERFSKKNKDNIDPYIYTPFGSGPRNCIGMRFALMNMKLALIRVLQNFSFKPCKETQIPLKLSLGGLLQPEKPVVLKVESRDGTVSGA
T1 sequence (P08684 whole entry): as above

Structure (SMILES) | IC50 [3, 29] [µM] | IC90 [4, 29] [µM] | IC50 ([5]; Trypanosoma brucei, ATCC 30027) [µM] | microsomal CLint [6] [µL/min/mg] | IC50 [7] [µM] | inhibition at 10 µM [8] [%] | chromatographic logD [9] | chromatographic logD [10] | half-life [11] [min] | solubility kinetic [12] [µg/mL] | IC50 [3] | inhibition at 1 µM [13] [%] | hepatic extraction ratio [14] | IC90 [4] | solubility kinetic [20] [µg/mL] | IC50 [2] [µM] | other results
CN1CCCC(CNCC(O)COc2ccc3cc(Br)ccc3c2)C1 (centres undefined) | 5.56 | > 10 | 7.12 | – | – | – | – | – | – | – | – | – | – | – | – | 19 | IC50 [1]: 2.03 µM and 1.7 µM and 0.54 µM
CS(=O)(=O)N(Cc1c[nH]cn1)c1ccc(-c2ccc(F)cc2)cc1F | 0.0022 | 0.0084 | – | 28 | < 1 | 86.1 | 2.3 | 1.6 | 61 | > 100 | 0.0026 µM | 51.6 | 0.52 | 0.0091 µM | – | > 100 | –
CC(C)N(C)CC(O)COc1ccc2cc(Br)ccc2c1 (centres undefined) | > 10 | 8.78 | – | < 7 | > 20 | – | 3.6 | 2.6 | > 250 | > 100 | 6.4 µM and 5.43 µM and 5.75 µM and 5.78 µM and 6.57 µM | – | < 0.23 | 8.95 µM and 8.79 µM and > 10 µM | > 100 | 19.2 | IC50 [1]: 6.73 µM and 2.38 µM; IC50 [27]: > 64 µM; IC50 [28]: 34.8 µM; IC50 [5]: 0.507 µM and 1.55 µM
CO/N=C(\C)c1ccc(-n2ccnc2)c(NC(=O)c2ccc(-c3ccccc3)cc2)c1 | 0.0204 | 0.065 | – | 30 | – | – | 3.9 | 3.1 | 58 | > 100 | – | – | – | – | < 1.6 | > 100 | microsomal CLint [15]: 31 µL/min/mg; half-life [16]: 40 min; CLhep predicted [17]: 24.5 mL/min/kg; CLblood [18]: 35 mL/min/kg; half-life [19]: 56 min; microsomal CLint [21]: 43 µL/min/mg
CS(=O)(=O)N(Cc1cnc[nH]1)c1ccc(-c2nc3ccccc3s2)cc1 | – | – | – | 55 | 1.5 | 85 | 2.3 | 1.6 | 32 | > 100 | – | 48 | 0.68 | – | – | – | PCR cure rate [23]: 0%; Parasitemia clearance after immunosuppression [23]: 0%; Parasitemia clearance after treatment [23]: 100%
CCN(c1ccccc1)S(=O)(=O)c1ccc(NC(=O)CN(C)C2CCN(C)CC2)c(Cl)c1.Cl | – | – | 1.42 | 169 | – | – | 4.4 | 2.9 | 10 | > 100 | – | – | – | – | > 100 | – | IC50 [1]: 11.3 µM and 24.1 µM; IC50 [27]: 40.6 µM
CN(CC(O)COc1ccc2cc(Br)ccc2c1)C1CCCCC1 (centres undefined) | 4.55 | 8.48 | – | 13 | > 10 | 11 | 3.6 | 2.6 | 132 | > 100 | 4.64 µM | 5 | 0.34 | 7.84 µM | > 100 | 16.6 | IC50 [1]: 1.68 µM and 2 µM; IC50 [1, 30]: 1.26 µM; IC50 [27]: > 64 µM; IC50 [28]: 17 µM
CO/N=C(\C)c1ccc(-n2ccnc2)c(NC(=O)c2cnc(-c3ccccn3)s2)c1 | 0.00293 | 0.0194 | > 10 | 20 | – | – | 2.7 | 1.8 | 85 | > 100 | 0.0055 µM | – | – | 0.017 µM | 6.3 (≈ 15.1 µM) | 68 | microsomal CLint [15]: 75 µL/min/mg; IC50 [28]: > 100 µM; half-life [19]: 23 min
CCN(c1ccccc1)S(=O)(=O)c1ccc(Cl)c(NC(=O)c2ccc3c(c2)CCNC3)c1 | > 1 | > 1 | 0.604 | 334 | 5.83 | – | – | – | 5.2 | 95.9 (≈ 204 µM) | – | – | 0.943 | – | 14.5 (≈ 30.8 µM) | 19.9 | IC50 [1]: 2.16 µM and 8 µM; IC50 [27]: 29.4 µM
CCN(Cc1c[nH]cn1)c1ccc(-c2nc3ccccc3s2)cc1 | 0.0153 | 0.156 | – | < 7 | 4 | 80 | 3.4 | 2.1 | > 250 | > 100 | – | 37 | < 0.23 | – | 3.1 (≈ 9.27 µM) | 36 | PCR cure rate [23]: 0%; Parasitemia clearance after immunosuppression [23]: 0%; Parasitemia clearance after treatment [23]: 80%

Continued, in another order:

IC50 [3, 29] [µM] | IC90 [4, 29] [µM] | IC50 ([5]; Trypanosoma brucei, ATCC 30027) [µM] | microsomal CLint [6] [µL/min/mg] | IC50 [7] [µM] | inhibition at 10 µM [8] [%] | chromatographic logD [9] | chromatographic logD [10] | half-life [11] [min] | solubility kinetic [12] [µg/mL] | IC50 [3] | inhibition at 1 µM [13] [%] | hepatic extraction ratio [14] | IC90 [4] | solubility kinetic [20] [µg/mL] | Structure (SMILES) | IC50 [2] [µM] | other results
0.00253 | 0.0089 | – | 30 | – | – | 3.9 | 2.6 | 58 | 25 (≈ 60.6 µM) | – | – | – | – | < 1.6 | CO/N=C(\C)c1ccc(-n2ccnc2)c(NC(=O)c2cnc(-c3ccccc3)cn2)c1 | 58.7 | microsomal CLint [15]: 29 µL/min/mg; half-life [16]: 35 min; CLhep predicted [17]: 32.3 mL/min/kg; CLblood [18]: 38 mL/min/kg; half-life [19]: 61 min; microsomal CLint [21]: 50 µL/min/mg
> 0.1 | > 0.1 | > 10 | 15 | > 20 | – | 2.7 | 1.9 | 113 | 50 (≈ 136 µM) | 0.084 µM | – | 0.46 | – | 3.1 (≈ 8.46 µM) | N#Cc1ccc(-n2ccnc2)c(NC(=O)c2cnc(-c3ccccc3)nc2)c1 | > 100 | inhibition at 10 µM [22]: 53.5%
0.09 | > 0.1 | > 10 | < 7 | > 20 | – | 2.3 | 1.7 | > 250 | 50 (≈ 119 µM) | – | – | < 0.28 | – | 12.5 (≈ 29.8 µM) | CS(=O)(=O)c1ccc(-n2ccnc2)c(NC(=O)c2cnc(-c3ccccc3)nc2)c1 | > 100 | inhibition at 10 µM [22]: 48.2%
– | – | > 10 | 24 | – | – | 3.4 | 2.6 | 73 | > 100 | 0.003 µM and 0.008 µM | – | – | 0.0105 µM and 0.0259 µM | < 1.6 | CO/N=C(\C)c1ccc(-n2ccnc2)c(NC(=O)c2cnc(-c3ccccc3)nc2)c1 | > 100 | PCR cure rate [23]: 0%; Parasitemia clearance after immunosuppression [23]: 60%; Parasitemia clearance after treatment [23]: 80%; PCR cure rate [24]: 0%; Parasitemia clearance after immunosuppression [24]: 0%; Parasitemia clearance after treatment [24]: 60%; microsomal CLint [15]: 34 µL/min/mg; fraction unbound [25]: 0.028; half-life [16]: 38 min; CLhep predicted [17]: 26.7 mL/min/kg; half-life [19]: 52 min; inhibition at 10 µM [22]: 47.3%; microsomal CLint [21]: 46 µL/min/mg; fraction unbound [26]: 0.014
0.023 | 0.151 | – | 93 | > 10 | 49 | 2.7 | 1.6 | 19 | > 100 | – | 15 | 0.78 | – | – | Cc1ccc(-n2ccnc2)c(NC(=O)c2cnc(-c3ccccc3)nc2)c1 | > 100 | –
0.0062 | 0.769 | – | 117 | < 1 | 91.9 | 3.7 | 2.8 | 15 | > 50 | 0.0053 µM | 75.9 | 0.82 | 0.639 µM | 3.1 (≈ 7.52 µM) | CO/N=C(\C)c1ccc(-n2ccnc2)c(NC(=O)c2cncc(-c3ccccc3)n2)c1 | 4.16 | IC50 [28]: 6.36 µM
0.063 | 0.148 | – | 18 | > 10 | 27 | 2.4 | 1.3 | 99 | > 100 | – | – | 0.4 | – | – | O=C(Nc1ccccc1-n1ccnc1)c1cnc(-c2ccccc2)nc1 | > 100 | –
0.013 | 0.0291 | – | 26 | – | – | 3.3 | 2.5 | 66 | > 100 | 0.009 µM | – | – | 0.0245 µM | – | CO/N=C(\C)c1ccc(-n2ccnc2)c(NC(=O)c2ccc(-c3ccccc3)nc2)c1 | > 100 | microsomal CLint [15]: 33 µL/min/mg; half-life [16]: 36 min; half-life [19]: 53 min; microsomal CLint [21]: 48 µL/min/mg
> 0.1 | > 0.1 | > 10 | – | – | – | – | – | – | – | – | – | – | – | – | O=C(Nc1cc(C(F)(F)F)ccc1-n1ccnc1)c1cnc(-c2ccccc2)nc1 | > 100 | IC50 [1, 30]: > 64 µM; IC50 [27]: > 64 µM
